Experimental data as given in article PMC12749811 (Nature Communications, 2025).

What was measured:
[1] = test system: Cal09-WT virus; assay type: cell-based, influenza A(H1N1)pdm09 virus A/California/07/2009
[2] = test system: A/Fujian-Licheng/SWL1661/2023; assay type: cell-based, influenza A(H1N1)pdm09 virus
[3] = test system: Cal09-WT virus; assay type: cell-based, influenza A(H1N1)pdm09 virus A/California/07/2009; remark: listed apart in the source
[4] = in vivo; cited from earlier work
[5] = test system: A/Sichuan-Shunqing/SWL11211/2023; assay type: cell-based, influenza A(H1N1)pdm09 virus

O=C1c2c(O)c(=O)ccn2N([C@@H]2c3ccccc3SCc3c2ccc(F)c3F)[C@@H]2COCCN12 [baloxavir]
sensitivity in plaque-reduction assay [1]: remained high sensitivity

CCOC(=O)C1=C[C@@H](OC(CC)CC)[C@H](NC(C)=O)[C@@H](N)C1 [oseltamivir]
oseltamivir sensitivity [2]: remained oseltamivir-sensitive
concentration at which virus replication was significantly inhibited [3]: 0.1 µM
average plasma concentration [4]: 0.33 µM
oseltamivir sensitivity [5]: remained oseltamivir-sensitive
concentration at which plaque diameters were inhibited [1]: 0.01 µM

CC(=O)N[C@H]1[C@H]([C@H](O)[C@H](O)CO)OC(C(=O)O)=C[C@@H]1N=C(N)N [zanamivir]
sensitivity in plaque-reduction assay [1]: remained fully sensitive

CCC(CC)[C@H](NC(C)=O)[C@@H]1[C@H](O)[C@@H](C(=O)O)C[C@H]1N=C(N)N [peramivir]
sensitivity in plaque-reduction assay [1]: remained fully sensitive
